Experimental data published in patent publication US20080076824A1, “Compounds That Inhibit Replication Of Human Immunodeficiency Virus” (priority 2004, published 2008).
Where “and” joins values, the source holds several entries; their conditions need not be identical. Equal entries are not always repeated. Entries after “also recorded” stand apart in the source; their conditions may differ. Where two headings read alike, the source gives them in different places. Each block holds one compound with its values, some of them ahead of it. Residues, ends and D or L forms follow the SMILES beside them.

Columns and labels:
HIV-1 (IIIB) [1] = experiment: microbe, parasite or virus in culture; details: Human immunodeficiency virus 1, IIIB, CCRF-CEM
HIV-1 (NL4.3) = details: read-out: EC50 HIV-1 NL3.4; CEM cell cultures, syncytia formation
Description: (§1) Human T-lymphocytic CEM cells (4.5×10^5 cells per ml) were suspended in fresh cell culture medium and infected with HIV-1 (IIIB and NL4.3) or HIV-2 (ROD or EHO) at 100 CCID50 (1 CCID50 being the virus dose infective for 50% of the cell cultures) per ml of cell suspension. Then, 100 μl of the infected cell suspension were transferred to microplate wells, mixed with 100 μl of appropriate (freshly prepared) dilutions of the test compounds (i.e., at final concentrations of […]), and were further incubated at 37° C. After 4 to 5 days, giant cell formation was recorded microscopically in the CEM cell cultures.

HIV-2 (EHO) = system: HIV-2 (EHO)
Description: as §1

HIV-1 (IIIB) [2] = details: for EC50: CEM cell cultures
in vitro = details: human
HIV-2 (ROD) = experiment: microbe, parasite or virus in culture; type: cell-based; details: 2 (ROD)
Description: as §1, with “cultures. […] (See Table 1).” for “cultures.”
(§2) MT-4, C8166 or CEM cells (4 to 5×10^5 cells per ml) were suspended in fresh culture medium (RPMI-1640 medium supplemented with 10% fetal bovine serum (FBS) (BioWittaker Europe, Verviers, Belgium), 2 mM L-glutamine and […] NaHCO3). Subsequently, the cells were infected with HIV-1 (IIIB) or HIV-2(ROD) at ˜100 CCID50 (1 CCID50 being the dose infective for 50% of the cell cultures) per ml of cell suspension. Then, 100 μl of the infected cell suspension were transferred to 96-well microplate wells, mixed with 100 μl of the appropriate (5-fold) dilutions of the test compounds and further incubated at 37° C. After 4 to 5 days, giant cell formation was recorded microscopically in the CEM and C8166 cell cultures. The MT-4 cell cultures were treated with trypan blue and the number of viable cells was determined.

HIV (SF2 virus) [3] = experiment: HIV infectivity assay, SF2-infected H9 cells, p24 quantification; type: cell-based; details: for OD1: replicates (1)-(3)
Description: The remaining wells were filled with sterile distilled water. The cell culture plates were incubated at 37° C. and 5% CO2. After four days the medium was changed, after eight days the medium was changed and the cells were collected. After 11 days, the infection was stopped, the cells were viewed in a 10× magnification microscope and 650 μl of each cell supernatant was collected and frozen at −80° C. for further analysis. After five more days, the supernatants were thawed and used in a conventional reverse transcriptase (RT) activity assay (e.g., Roche AMPLICOR MONITOR™) or a p24 quantification assay (e.g., Abbott Laboratories, Chicago). (See U.S. Pat. No. 6,258,932 and U.S. patent application Ser. No. 10/235,158, both of which are hereby expressly incorporated by reference in its entireties).
[…] The cells in the samples were counted and then centrifuged. The cells were then resuspended in 10 ml of RPMI 1640 (containing fetal calf serum) and either […] Metabolite X or 100 μM GPG-NH2. Uninfected control and untreated control samples were also included in the experiment. The samples were then incubated overnight at 37° C. at 5% CO2.
Then, the amount of p24 in the samples was analysed using a conventional p24 detection assay (see U.S. Pat. No. 6,258,932).
Three replicate samples (“replicates”) of uninfected samples and untreated samples were also included in the experiment as controls. The inhibition of HIV replication was monitored by quantifying the levels of p24 using a conventional detection kit.
Three replicates of unninfected samples and untreated samples were also included in the experiment as controls.

HIV (SF2 virus) [4] = experiment: HIV infectivity assay, SF2-infected H9 cells, reverse transcriptase (RT) quantification in supernatant; type: cell-based; details: for inhibition of HIV replication, reverse transcriptase (RT) activity: cultures containing boiled fetal calf serum
HIV (SF2 virus) [5] = experiment: HIV infectivity assay, SF2-infected H9 cells, visible syncytia; type: cell-based; details: for Visible syncytia: H9/SF2, day 11
HIV-1 (IIIB) [6] = experiment: microbe, parasite or virus in culture; details: Human immunodeficiency virus 1, IIIB, MT4, read-out: EC50 (MT-4) HIV-1 (IIIB)
Description: as §2

HIV-2(ROD) = experiment: microbe, parasite or virus in culture; details: Human immunodeficiency virus 2, MT4, read-out: EC50 (MT-4) HIV-2 (ROD), Table 19
Description: as §2

[7] = read-out: EC50 against HIV-1(IIIB), CEM cell cultures, Table 2
[8] = read-out: EC50 against HIV-1(IIIB), Table 2

Structure (SMILES): NC(=O)[C@@H]1CCCN1 [L-Prolinamide]
EC50 (HIV-1 (IIIB) [1]; [7]): > 1000 µM

Structure (SMILES): NCC(O)CN [1,3-diamino-2-hydroxypropane]
EC50 (HIV-1 (IIIB) [1]; [7]): > 1000 µM

Structure (SMILES): NC(=O)CC[C@H](N)C(=O)N1CCC[C@H]1C(=O)NCC(N)=O [Q-PG-NH2, glutaminylprolylglycinamide] (H-Gln-Pro-Gly-NH2)
EC50 (HIV-1 (NL4.3)): 265 µM | EC50 (HIV-2 (EHO)): 82 µM | EC50 (HIV-1 (IIIB) [2]; read-out: EC50 HIV-1 IIIB, syncytia formation, Table 1): 86 µM | EC50 (in vitro): > 1500 µM | EC50 (HIV-2 (ROD)): 89 µM

Structure (SMILES): CC(C)[C@H](N)C(=O)Nc1ccc2ccccc2c1 [L-Val β-naphthylamide, reference compound]
EC50 (HIV-1 (IIIB) [2]; [8]): > 100 µM

Structure (SMILES): COC(N)C(=O)NC(=O)OCc1ccccc1 (stereo not drawn) [Example 22, α-methoxy-N-benzyloxycarbonylglycinamide]
melting point: 110 to 112 °C

Structure (SMILES): NC(=O)C(N)O (stereo not drawn) [Met-X, α-hydroxyglycinamide]
OD1 (HIV (SF2 virus) [3]; 50 μM, fetal calf serum): 1.105 and 1.895 and 2.351 | conc p24 (HIV (SF2 virus) [3]; 50 μM, human serum): 457.33 ng/mL and 427.85 ng/mL and 261.05 ng/mL | OD1 (HIV (SF2 virus) [3]; 100 μM, fetal calf serum): 0.193 and 0.081 and 0.144 | inhibition of HIV replication, p24 (HIV (SF2 virus) [3]; 100 μM, presence of fetal calf serum): effectively inhibited HIV replication | inhibition of HIV, accumulation of p24, compared with reference (HIV (SF2 virus) [3]; fetal calf serum): as effectively as GPG-NH2; also recorded: as effectively as G-NH2 | inhibition of HIV replication, accumulation of p24 (HIV (SF2 virus) [3]; human serum): inhibited HIV replication in human serum | inhibition of HIV replication, accumulation of p24 (HIV (SF2 virus) [3]; human serum, listed as Metabolite X): effective inhibitors of HIV replication in human serum | reverse transcriptase activity in treated samples (HIV (SF2 virus) [4]; 100 μM, fetal calf serum): no reverse transcriptase activity | inhibition of HIV replication, reverse transcriptase (RT) activity (HIV (SF2 virus) [4]): inhibited the replication of HIV | inhibition of HIV replication, reverse transcriptase (RT) activity (HIV (SF2 virus) [4]; listed as Metabolite X): effectively inhibited replication HIV | concentration at which inhibition of HIV replication is virtually complete (HIV (SF2 virus) [4]; fetal bovine serum, 10 days): ≥ 15.6 µM | Visible syncytia (HIV (SF2 virus) [5]; 100 μM in boiled RPMI++): negative | Visible syncytia (HIV (SF2 virus) [5]; 100 μM in normal RPMI++ (10% FCS)): negative | Visible syncytia (HIV (SF2 virus) [5]; 500 μM in boiled RPMI++): negative | Visible syncytia (HIV (SF2 virus) [5]; 500 μM in normal RPMI++ (10% FCS)): negative | inhibition of replication and/or propagation of HIV by visual inspection (HIV (SF2 virus) [5]; boiled fetal calf serum): effectively inhibited | inhibition of replication of HIV (HIV-1 (IIIB) [2]; boiled fetal bovine serum or human serum samples, results the experiments will show): efficiently inhibits replication of HIV

Structure (SMILES): NCC(=O)CN [1,3-diaminoaceton]
EC50 (HIV-1 (IIIB) [1]; [7]): > 1000 µM

Structure (SMILES): CC(C)OC(N)C(=O)NC(=O)OCc1ccccc1 (stereo not drawn) [Example 26, α-isopropoxy-N-benzyloxycarbonylglycinamide]
melting point: 111 to 113 °C

Structure (SMILES): N=C(N)NCCC[C@H](N)C(N)=O [L-Argininamide]
EC50 (HIV-1 (IIIB) [1]; [7]): > 500 µM

Second part, the compound after the results:

EC50 (HIV-1 (IIIB) [1]; [7]): > 500 µM
Structure (SMILES): CC(C)C[C@H](N)C(=O)O [L-Leucine]

EC50 (HIV-1 (IIIB) [1]; [7]): > 500 µM
Structure (SMILES): CC(C)C[C@H](N)C(N)=O [L-Leucinamide]

EC50 (HIV-1 (IIIB) [1]; read-out: EC50 against HIV-1(IIIB)): > 500 µM
Structure (SMILES): NCCCC[C@H](N)C(N)=O [L-Lysinamide]

EC50 (HIV-1 (IIIB) [1]; [7]): > 500 µM
Structure (SMILES): NC(=O)C[C@@H](N)C(=O)O [D-Asparagine]

EC50 (HIV-1 (IIIB) [1]; [7]): > 500 µM
Structure (SMILES): CC[C@H](C)[C@H](N)C(N)=O [L-Isoleucinamide]

EC50 (HIV-1 (IIIB) [1]; [7]): > 500 µM
Structure (SMILES): CC(C)[C@H](N)C(N)=O [L-Valinamide]

EC50 (HIV-1 (IIIB) [6]): > 500 µM | EC50 (HIV-2(ROD)): > 500 µM | EC50 (HIV-1 (IIIB) [1]; read-out: EC50 (CEM) HIV-1 (IIIB), Table 19): > 500 µM
Structure (SMILES): NC(=O)C(N)=O [Oxamide, Oxamide (H2NCOCONH2), reference compound]

EC50 (HIV-1 (IIIB) [1]; [7]): > 1000 µM
Structure (SMILES): NCC(N)C(=O)O (racemic) [DL-2,3-diaminopropionic acid]

EC50 (HIV-1 (IIIB) [1]; [7]): > 500 µM
Structure (SMILES): C[C@H](N)C(=O)O [L-Alanine]

EC50 (HIV-1 (IIIB) [2]; [8]): > 1000 µM | EC50 (HIV-1 (IIIB) [1]; [7]): > 500 µM
Structure (SMILES): NC(=O)C[C@H](N)C(N)=O [L-Asparaginamide, reference compound]

EC50 (HIV-1 (IIIB) [1]; [7]): > 500 µM
Structure (SMILES): CSCC[C@H](N)C(N)=O [L-Methioninamide]
